Results published in article PMC11124822, “Discovery and Anticancer Screening of Novel Oxindole-Based Derivative Bearing Pyridyl Group as Potent and Selective Dual FLT3/CDK2 Kinase Inhibitor” (Pharmaceuticals, 2024).

Legend:
HL-60(TB) = test: NCI-60 antiproliferative screen (SRB); assay type: cell-based, human; settings: Homo sapiens; 10 µM single dose, 48 h; HL-60(TB) (Leukemia); read-out: Growth inhibition (%)
K-562 = test: NCI-60 antiproliferative screen (SRB); assay type: cell-based, human; settings: Homo sapiens, K562; 10 µM single dose, 48 h; K-562 (Leukemia); read-out: Growth inhibition (%)
MOLT-4 = test: NCI-60 antiproliferative screen (SRB); assay type: cell-based; settings: Homo sapiens; 10 µM single dose, 48 h; MOLT-4 (Leukemia); read-out: Growth inhibition (%)
RPMI-8226 = test: NCI-60 antiproliferative screen (SRB); assay type: cell-based, human; settings: Homo sapiens; 10 µM single dose, 48 h; RPMI-8226 (Leukemia); read-out: Growth inhibition (%)
A549/ATCC = test: NCI-60 antiproliferative screen (SRB); assay type: cell-based, human; settings: Homo sapiens; 10 µM single dose, 48 h; A549/ATCC (NSCLC); read-out: Growth inhibition (%)
HOP-62 = test: NCI-60 antiproliferative screen (SRB); assay type: cell-based, human; settings: Homo sapiens; 10 µM single dose, 48 h; HOP-62 (NSCLC); read-out: Growth inhibition (%)
HOP-92 = test: NCI-60 antiproliferative screen (SRB); assay type: cell-based, human; settings: Homo sapiens; 10 µM single dose, 48 h; HOP-92 (NSCLC); read-out: Growth inhibition (%)
NCI-H322M = test: NCI-60 antiproliferative screen (SRB); assay type: cell-based, human; settings: Homo sapiens; 10 µM single dose, 48 h; NCI-H322M (NSCLC); read-out: Growth inhibition (%)
COLO 205 = test: NCI-60 antiproliferative screen (SRB); assay type: cell-based, human; settings: Homo sapiens; 10 µM single dose, 48 h; COLO 205 (Colon); read-out: Growth inhibition (%)
HCC-2998 = test: NCI-60 antiproliferative screen (SRB); assay type: cell-based, human; settings: Homo sapiens; 10 µM single dose, 48 h; HCC-2998 (Colon); read-out: Growth inhibition (%)
HT29 = test: NCI-60 antiproliferative screen (SRB); assay type: cell-based, human; settings: Homo sapiens, HT-29; 10 µM single dose, 48 h; HT29 (Colon); read-out: Growth inhibition (%)
KM12 = test: NCI-60 antiproliferative screen (SRB); assay type: cell-based, human; settings: Homo sapiens; 10 µM single dose, 48 h; KM12 (Colon); read-out: Growth inhibition (%)
SW-620 = test: NCI-60 antiproliferative screen (SRB); assay type: cell-based, human; settings: Homo sapiens; 10 µM single dose, 48 h; SW-620 (Colon); read-out: Growth inhibition (%)
SNB-19 = test: NCI-60 antiproliferative screen (SRB); assay type: cell-based, human; settings: Homo sapiens; 10 µM single dose, 48 h; SNB-19 (CNS); read-out: Growth inhibition (%)
U251 = test: NCI-60 antiproliferative screen (SRB); assay type: cell-based, human; settings: Homo sapiens, U-251; 10 µM single dose, 48 h; U251 (CNS); read-out: Growth inhibition (%)
MALME-3M = test: NCI-60 antiproliferative screen (SRB); assay type: cell-based, human; settings: Homo sapiens; 10 µM single dose, 48 h; MALME-3M (Melanoma); read-out: Growth inhibition (%)
SK-MEL-2 = test: NCI-60 antiproliferative screen (SRB); assay type: cell-based, human; settings: Homo sapiens; 10 µM single dose, 48 h; SK-MEL-2 (Melanoma); read-out: Growth inhibition (%)
SK-MEL-5 = test: NCI-60 antiproliferative screen (SRB); assay type: cell-based, human; settings: Homo sapiens; 10 µM single dose, 48 h; SK-MEL-5 (Melanoma); read-out: Growth inhibition (%)
A498 = test: NCI-60 antiproliferative screen (SRB); assay type: cell-based, human; settings: Homo sapiens; 10 µM single dose, 48 h; A498 (Renal); read-out: Growth inhibition (%)
RXF 393 = test: NCI-60 antiproliferative screen (SRB); assay type: cell-based, human; settings: Homo sapiens; 10 µM single dose, 48 h; RXF 393 (Renal); read-out: Growth inhibition (%)
TK-10 = test: NCI-60 antiproliferative screen (SRB); assay type: cell-based, human; settings: Homo sapiens; 10 µM single dose, 48 h; TK-10 (Renal); read-out: Growth inhibition (%)
UO-31 = test: NCI-60 antiproliferative screen (SRB); assay type: cell-based, human; settings: Homo sapiens; 10 µM single dose, 48 h; UO-31 (Renal); read-out: Growth inhibition (%)
PC-3 = test: NCI-60 antiproliferative screen (SRB); assay type: cell-based, human; settings: Homo sapiens; 10 µM single dose, 48 h; PC-3 (Prostate); read-out: Growth inhibition (%)
MCF7 = test: NCI-60 antiproliferative screen (SRB); assay type: cell-based, human; settings: Homo sapiens; 10 µM single dose, 48 h; MCF7 (Breast); read-out: Growth inhibition (%)
MDA-MB-231 = test: NCI-60 antiproliferative screen (SRB); assay type: cell-based, human; settings: Homo sapiens; 10 µM single dose, 48 h; MDA-MB-231 (Breast); read-out: Growth inhibition (%)
T-47D = test: NCI-60 antiproliferative screen (SRB); assay type: cell-based, human; settings: Homo sapiens, T47D; 10 µM single dose, 48 h; T-47D (Breast); read-out: Growth inhibition (%)
MDA-MB-468 = test: NCI-60 antiproliferative screen (SRB); assay type: cell-based, human; settings: Homo sapiens; 10 µM single dose, 48 h; MDA-MB-468 (Breast); read-out: Growth inhibition (%)
SR = test: NCI-60 antiproliferative screen (SRB); settings: Homo sapiens, 48 h, read-out: Growth inhibition (%)
SNB-75 = test: NCI-60 antiproliferative screen (SRB); settings: Homo sapiens, SNB-75, 48 h, read-out: Growth inhibition (%)
Experimental: Anticancer activity was tested against 60 cancer cell lines (NCI-60) after 48h treatments with a single dosage of 10 μM of compounds by using sulforhodamine B assay [39] on the traditional 96-well platform. […] The human cancer cell lines of the NCI-60 panel are grown in RPMI 1640 medium supplemented with 5% FBS (fetal bovine serum) and 2 mM L-glutamine. […] For further analysis of promising compounds, five dose screens were performed against the NCI-60 panel. Drug treatments are performed in 5 doses using 10-fold or ½ log dose dilutions.

OVCAR-3 = test: NCI-60 antiproliferative screen (SRB); assay type: cell-based, human; settings: Homo sapiens; 10 µM single dose, 48 h; OVCAR-3 (Ovarian); read-out: Growth inhibition (%)

Row | SMILES | inhibition at 10 µM (HL-60(TB)) | inhibition at 10 µM (K-562) | inhibition at 10 µM (MOLT-4) | inhibition at 10 µM (RPMI-8226) | inhibition at 10 µM (A549/ATCC) | inhibition at 10 µM (HOP-62) | inhibition at 10 µM (HOP-92) | inhibition at 10 µM (NCI-H322M) | inhibition at 10 µM (COLO 205) | inhibition at 10 µM (HCC-2998) | inhibition at 10 µM (HT29) | inhibition at 10 µM (KM12) | inhibition at 10 µM (SW-620) | inhibition at 10 µM (SNB-19) | inhibition at 10 µM (U251) | inhibition at 10 µM (MALME-3M) | inhibition at 10 µM (SK-MEL-5) | inhibition at 10 µM (RXF 393) | inhibition at 10 µM (TK-10) | inhibition at 10 µM (UO-31) | further results
1 | O=C1Nc2ccccc2C1=Cc1ccc(OCc2ccccc2)cc1 (mixture of isomers) [Compound 5a, (E/Z)-3-[4-(Benzyloxy)benzylidene] indolin-2-one] | 11.5% | 11.8% | 2.73% | 1.13% | -3.26% | -4.06% | -7% | 0.44% | -13.1% | -13.1% | -6.64% | -3.15% | -7.33% | 2.17% | -3.49% | -7.59% | 1.96% | -16.2% | -8.25% | 14.9% | inhibition at 10 µM (SK-MEL-2): -4.59%; inhibition at 10 µM (A498): 7.9%; inhibition at 10 µM (PC-3): 5.85%; inhibition at 10 µM (MCF7): 15.8%; inhibition at 10 µM (MDA-MB-231): -10%; inhibition at 10 µM (T-47D): 0.85%; inhibition at 10 µM (MDA-MB-468): 0.75%; melting point: 220 to 223 °C; inhibition at 10 µM (SR): 14.6%; inhibition at 10 µM (SNB-75): 14.6%
2 | O=C1Nc2ccc(F)cc2C1=Cc1ccc(OCc2ccccc2)cc1 (mixture of isomers) [Compound 5b, (E/Z)-3-[4-(Benzyloxy)benzylidene]-5-fluoroindolin-2-one] | 7.92% | 7.19% | -0.05% | 2.59% | 3.9% | -1.2% | 4.77% | 2.81% | 1.92% | -9.12% | 2.38% | 2.42% | -2.34% | 1.26% | 0.4% | 7.33% | -0.59% | 0.31% | 4.82% | 2.55% | inhibition at 10 µM (PC-3): -2.77%; inhibition at 10 µM (MCF7): 7.57%; inhibition at 10 µM (MDA-MB-231): 2.43%; inhibition at 10 µM (T-47D): 3.79%; inhibition at 10 µM (MDA-MB-468): 1.56%; melting point: 244 to 248 °C; inhibition at 10 µM (SR): -0.14%; inhibition at 10 µM (SNB-75): 5.15%
3 | O=C1Nc2ccc(Cl)cc2C1=Cc1ccc(OCc2ccccc2)cc1 (mixture of isomers) [Compound 5c, (E/Z)-3-[4-(Benzyloxy)benzylidene]-5-chloroindolin-2-one] | -3.22% | -0.34% | 3.28% | -3.85% | -0.99% | 3.77% | 9.75% | -0.07% | -6.62% | -3.96% | -2.95% | -1.02% | 1.08% | -1.05% | -1.54% | -13% | 1.9% | -5.38% | -12.7% | 23.9% | inhibition at 10 µM (SK-MEL-2): -0.35%; inhibition at 10 µM (A498): -2.37%; inhibition at 10 µM (PC-3): 12.9%; inhibition at 10 µM (MCF7): 16%; inhibition at 10 µM (MDA-MB-231): -5.3%; inhibition at 10 µM (T-47D): 4.11%; inhibition at 10 µM (MDA-MB-468): -0.96%; melting point: 214 to 216 °C; inhibition at 10 µM (SR): -0.06%; inhibition at 10 µM (SNB-75): 13.1%
4 | O=C1Nc2ccc(F)cc2C1=Cc1ccc(OCc2ccccn2)cc1 (mixture of isomers) [Compound 5f, (E/Z)-5-fluoro-3-[4-(pyridin-2-ylmethoxy)benzylidene]indolin-2-one] | 13.9% | 14.6% | 3.55% | 19.4% | -1.04% | -7.71% | 32.9% | 3.29% | -10.8% | -20.2% | -0.51% | 18.8% | -2.79% | 12.9% | 41.8% | 7.24% | -5.85% | 24.2% | 4.47% | 26.5% | inhibition at 10 µM (SK-MEL-2): -3.45%; inhibition at 10 µM (OVCAR-3): 8.17%; inhibition at 10 µM (A498): 32.5%; inhibition at 10 µM (PC-3): 8.7%; inhibition at 10 µM (MCF7): 37.8%; inhibition at 10 µM (MDA-MB-231): 14.9%; inhibition at 10 µM (T-47D): 60.7%; inhibition at 10 µM (MDA-MB-468): 28.2%; melting point: 226 to 228 °C; inhibition at 10 µM (SNB-75): 10.2%
